Consider two compounds from a compilation of properties of binary mixtures (doi:10.1007/s10953-010-9507-z).

Molecules are shown by their SMILES.

The data set is described as follows: xn = mol fraction of the nth substance listed. The note with it: 298.15 K, 101 kPa.

One may read the viscosity as the resistance of a fluid to flow. Low readings indicate easy flow, high ones sluggish flow.

Take `CCOC(C)=O` + CCCC[n+]1ccn(C)c1.O=S(=O)([N-]S(=O)(=O)C(F)(F)F)C(F)(F)F: the viscosity is 44.4 mPa·s (x1 = 0.0522); 30.6 mPa·s (x1 = 0.1818); 21.1 mPa·s (x1 = 0.2982); 13.67 mPa·s (x1 = 0.4204); 10.91 mPa·s (x1 = 0.4752); 6.54 mPa·s (x1 = 0.5937). In addition, the viscosity is given as 3.93 mPa·s (x1 = 0.6953), 2.21 mPa·s (x1 = 0.7954) and 1.105 mPa·s (x1 = 0.8933).
Regarding `CCCC[n+]1ccn(C)c1.O=S(=O)([N-]S(=O)(=O)C(F)(F)F)C(F)(F)F` + CCO, the viscosity is listed as 42.6 mPa·s (x2 = 0.0793); 36.8 mPa·s (x2 = 0.1393); 31.4 mPa·s (x2 = 0.2058); 27.3 mPa·s (x2 = 0.2578); 21.6 mPa·s (x2 = 0.345); 19.4 mPa·s (x2 = 0.384). The viscosity was found to be 17.91 mPa·s (x2 = 0.4122); 11.15 mPa·s (x2 = 0.5622); 7.11 mPa·s (x2 = 0.688); 4.36 mPa·s (x2 = 0.7967); 2.46 mPa·s (x2 = 0.8984).
